Results: paper PMC10778824, “New Chalcone Derivatives Containing 2,4-Dichlorobenzenesulfonamide Moiety with Anticancer and Antioxidant Properties” (International Journal of Molecular Sciences, 2023)
In brackets after ≈: the same amount, converted by molar mass.

Tests used:
K-562 cells = details: 10 µM; cited from earlier work
HCT-116 colon = tested on: HCT-116 colon; design: method as in PMID 29223717; details: cited from earlier work
MCF-7 breast = tested on: MCF-7 breast; design: method as in PMID 29223717; details: cited from earlier work
143B osteosarcoma = tested on: 143B osteosarcoma; design: method as in PMID 29223717; details: cited from earlier work
[1] = tested on: gastric adenocarcinoma AGS; test: MTT assay, AGS cells; assay type: cell-based, human
Experimental: (§1) The human gastric adenocarcinoma AGS, cervical cancer HeLa, and acute promyelocytic leukemia HL-60 cells were obtained from the American Type Culture Collection (ATCC, Manassas, VA, USA). Human neonatal fibroblasts were obtained from LGC Standards (Luckenwalde, Germany). The HeLa and AGS lines were cultured in Dulbecco’s modified Eagle’s medium (DMEM) and DMEM/F12 medium, respectively. The HL-60 line was maintained in RPMI-1640 medium. Fibroblasts were cultured in Fibroblast Growth Medium with Supplement Mix. All the media were supplemented with 100 units/mL of penicillin, 100 µg/mL of streptomycin, and 10% (v/v) fetal bovine serum (FBS) (Merck Millipore, Burlington, MA, USA). The cells were incubated at 37 °C and 5% CO2.
(§2) To estimate the cytotoxic effect of the five compounds (4–8), MTT (3-(4,5-dimethylthiazol-2-yl)-2,5-diphenyltetrazolium bromide) assay was used. Oxaliplatin was used as a positive control in this test. All the cell lines were seeded in 96-well plates at a density of 5 × 10^3 cells/well and treated for 24 h with the compounds at concentrations of 0.5–40 µg/mL. Oxaliplatin was tested in the range of 20–400 µg/mL (50–1000 µM). After treatment, the cells were incubated with MTT (0.5 mg/mL; Merck Millipore, Burlington, MA, USA) for 3 h. Then, DMSO was used to dissolve formazan crystals, and the absorbance of the formazan solution was measured with a plate reader (Epoch, BioTek Instruments, Santa Clara, CA, USA). All the results (±standard deviation (SD)) were obtained from six repetitions in at least two independent experiments. The data are expressed as IC50 values (µg/mL).

cervical cancer HeLa = test: MTT assay, HeLa cells; assay type: cell-based, human
Experimental: as §1, §2

[2] = tested on: acute promyelocytic leukemia HL-60; test: MTT assay, HL-60 cells; assay type: cell-based, human
Experimental: as §1, §2

[3] = tested on: human neonatal fibroblasts; test: MTT assay, noncancerous fibroblasts; assay type: cell-based; details: Homo sapiens, Fibroblast, 24 h treatment
Experimental: as §1, §2

[4] = tested on: cancer cells (HeLa, HL-60, AGS); test: MTT assay, cancer cells taken together; assay type: cell-based, human; details: HL-60 and AGS together
Experimental: as §1, §2

[5] = β-Carotene bleaching test
Experimental: β-Carotene bleaching test was based on the method described by Olszowy et al. with some modifications. First, 1 mg of β-carotene was dissolved in 5 mL of chloroform. Afterwards, […] of linoleic acid and 200 mg of Tween 40 were added. The chloroform was evaporated, and 50 mL of oxygenized water was added. The created emulsion was mixed with different concentrations of chalcone derivatives. β-carotene bleaching was analyzed at λ = 492 nm before (t = 0 min) and after 90 min (t = 90 min) of incubation at 50 °C (Epoch, BioTek Instruments, Santa Clara, CA, USA). Ascorbic acid was used as a standard. The control was composed of emulsion and DMSO.
The results were calculated according to the following Formula (4):[(AsampleT0 − AsampleT90)/(AcontrolT0 − AcontrolT90) × 100%(4)

[6] = DPPH radical scavenging assay; details: for % of DPPH radical inhibition: concentration of 800 µg/mL
Experimental: The DPPH radical scavenging assay of samples (ligands or complexes) was performed with ascorbic acid as a standard. Different concentrations of chalcone derivatives, dissolved in DMSO, were mixed with the same amount of 0.06 mM DPPH methanolic solution and incubated at room temperature in the dark for 30 min. The absorbance was analyzed at λ = 517 nm using a 96-well microplate reader (Epoch, BioTek System, Winooski, VT, USA). The control was composed of DPPH and DMSO. DPPH inhibition was calculated according to the following Formula (2):DPPH Inhibition (%) = [(Acontrol − Asample)/Acontrol] × 100%(2)

neutrophil elastase = molecular target: T1, neutrophil elastase (Sus scrofa, UniProt P00772); test: Elastase assay (SANA substrate); assay type: biochemical, porcine; details: Tris-HCl pH 8.0, SANA substrate; read-out: neutrophil elastase inhibition IC50 (converted)
T1 construct: purchased Sigma Chemical Co. (St. Louis, MO, USA)
T1 sequence (P00772 27-266): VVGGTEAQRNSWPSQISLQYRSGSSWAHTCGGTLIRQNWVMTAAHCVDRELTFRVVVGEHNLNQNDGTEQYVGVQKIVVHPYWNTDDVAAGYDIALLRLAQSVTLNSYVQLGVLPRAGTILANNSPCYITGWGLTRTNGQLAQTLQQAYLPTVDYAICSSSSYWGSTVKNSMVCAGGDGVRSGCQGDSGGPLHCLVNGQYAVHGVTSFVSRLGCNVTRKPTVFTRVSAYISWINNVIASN
Experimental: The elastase analysis was performed according to the spectrophotometric method with oleanolic acid as a reference. The reaction mixture (Tris-HCl buffer (pH 8.0), 1.0 μg/mL porcine pancreatic elastase, and different concentrations of chalcone derivatives was preincubated at room temperature for 15 min. Afterwards, the addition of the substrate—SANA—started the reaction. Product formation changes were analyzed at λ = 410 nm for 20 min every 20 s (Epoch, BioTek Instruments, Santa Clara, CA, USA). The control was composed of Tris-HCl buffer (pH 8.0), an appropriate concentration of the chalcone derivative, and SANA.

[7] = tested on: Bacillus cereus PCM 1948,2019 (ATCC11778); test: MIC determination; assay type: cell-based; details: 37 °C, 48 h
Experimental: (§3) The MIC determinations for Staphylococcus epidermidis ATCC14990, Staphylococcus aureus ATCC6538, Enterococcus faecalis ATCC51299, Klebsiella pneumoniae ATCC13883, Escherichia coli ATCC8739, Salmonella enterica ATCC13076, Helicobacter pylori ATCC43504, Campylobacter jejuni ZMF, Campylobacter coli ZMF, Bacillus cereus PCM 1948,2019 (ATCC11778), and Listeria monocytogenes PCM2191 were performed based on the methodology described by Krauze-Baranowska et al.. The procedure for H. pylori was used in the experiments with Campylobacter strains, and the procedure for B. subtilis was used in the experiments with L. monocytogenes and B. cereus. The tested samples were dissolved in DMSO and diluted with water (concentration of approximately 500 μg/mL). The solutions were diluted geometrically by transferring the mixture/dilution (100 μL) from the first to the twelfth well of the microtiter plate. The final concentrations of samples used for antimicrobial effects ranged from 500 to 0.006 µg/mL. Ampicillin was used as a reference compound in the concentration range of 128 to 0.0625 µg/mL. The tests were incubated at 37 °C for 48 h. The diluent concentration had no effect on the activity of the tested compounds. All experiments were performed in triplicate.

Campylobacter coli ZMF = test: MIC determination; assay type: cell-based; details: 37 °C, 48 h
Experimental: as §3

Campylobacter jejuni ZMF = test: MIC determination; assay type: cell-based; details: 37 °C, 48 h
Experimental: as §3

[8] = tested on: Enterococcus faecalis ATCC51299; test: MIC determination; assay type: cell-based; details: 37 °C, 48 h
Experimental: as §3

[9] = tested on: Escherichia coli ATCC8739; test: MIC determination; assay type: cell-based; details: 37 °C, 48 h
Experimental: as §3

[10] = tested on: Helicobacter pylori ATCC43504; test: MIC determination; assay type: cell-based; details: 37 °C, 48 h
Experimental: as §3

[11] = tested on: Klebsiella pneumoniae ATCC13883; test: MIC determination; assay type: cell-based; details: 37 °C, 48 h
Experimental: as §3

[12] = tested on: Listeria monocytogenes PCM2191; test: MIC determination; assay type: cell-based; details: 37 °C, 48 h
Experimental: as §3

[13] = tested on: Salmonella enterica ATCC13076; test: MIC determination; assay type: cell-based; details: 37 °C, 48 h
Experimental: as §3

[14] = tested on: Staphylococcus aureus ATCC6538; test: MIC determination; assay type: cell-based; details: 37 °C, 48 h
Experimental: as §3

[15] = tested on: Staphylococcus epidermidis ATCC14990; test: MIC determination; assay type: cell-based; details: 37 °C, 48 h
Experimental: as §3

[16] = tested on: colon cancer cells (HTC-116); design: method as in PMID 12556221; details: preclinical tests; cited from earlier work
[17] = ABTS radical scavenging assay
Experimental: The ABTS radical scavenging assay of chalcone derivatives was performed with ascorbic acid as a standard. Different concentrations of samples, dissolved in DMSO, were mixed with 170 μL of ABTS solution (2 mM ABTS diammonium salt and 3.5 mM potassium persulfate), and water was added to a final volume of 300 μL. ABTS solution with DMSO was used as a control. […] ABTS inhibition was calculated according to the following Formula (3):ABTS Inhibition (%) = [(Acontrol − Asample)/Acontrol] × 100%(3)

[18] = tested on: hepatocellular carcinoma HepG2 cells; design: method as in PMID 32545423; details: cited from earlier work
[19] = molecular target: BRAF serine–threonine kinase; design: method as in PMID 22646766; details: cited from earlier work
[20] = SI = IC50 noncancer cells/IC50 cancer cells, in relation to human neonatal fibroblasts

Compound: COc1ccc(C(=O)C=Cc2ccccc2)cc1S(N)(=O)=O [5-cinnamoyl-2-methoxybenzenesulfonamide]
- viability of leukemia cells (K-562 cells): less than 10%

Compound: Cc1cccc(S(=O)(=O)Nc2cccc(/C=C/C(=O)c3nc4ccccc4[nH]3)c2)c1 [(E)-N-{3-[3-(1H-benzo[d]imidazol-2-yl)-3-oxoprop-1-en-1-yl]phenyl}-3-methylbenzenesulfonamide]
- IC50 (HCT-116 colon): 0.6 µM
- IC50 (MCF-7 breast): 0.89 µM
- IC50 (143B osteosarcoma): 0.79 µM

Compound: Cc1ccc(/C=C/C(=O)c2ccc(NS(=O)(=O)c3cc(C)c(Cl)cc3Cl)cc2)cc1 [Compound 8, (E)-2,4-Dichloro-5-Methyl-N-{4-[3-(p-Tolyl)acryloyl]phenyl}benzenesulfonamide]
- IC50 ([1]; Homo sapiens, AGS, 24 h, MTT, 24 h treatment): 3.6 ± 0.33 mg/L (≈ 7.82 µM)
- selectivity index AGS [1, 20]: 7.72
- IC50 (cervical cancer HeLa; Homo sapiens, HeLa, MTT, 24 h treatment): 7.96 ± 0.37 mg/L (≈ 17.3 µM)
- selectivity index HeLa (cervical cancer HeLa; [20]): 3.50
- IC50 ([2]; Homo sapiens, HL-60, 24 h, MTT, 24 h treatment): 2.9 ± 0.17 mg/L (≈ 6.3 µM)
- selectivity index HL-60 [2, 20]: 9.58
- IC50 [3]: 27.8 ± 2.82 mg/L (≈ 60.4 µM)
- IC50 toward cancer cells [4]: weaker activity
- protection of lipids oxidation / reduction of lipid peroxidation (in words) ([5]; compared to ascorbic acid): weaker properties
- % of DPPH radical inhibition [6]: 0.32 ± 0.03%
- IC50 (neutrophil elastase): 55.9 µM
- MIC [7]: > 500 mg/L
- MIC (Campylobacter coli ZMF): > 500 mg/L
- MIC (Campylobacter jejuni ZMF): > 500 mg/L
- MIC [8]: > 500 mg/L
- MIC [9]: > 500 mg/L
- MIC [10]: > 500 mg/L
- MIC [11]: > 500 mg/L
- MIC [12]: > 500 mg/L
- MIC [13]: > 500 mg/L
- MIC [14]: > 500 mg/L
- MIC [15]: > 500 mg/L

Compound: NS(=O)(=O)c1ccc(S(=O)(=O)Nc2cccc3c(Cl)c[nH]c23)cc1 [Indisulam]
- IC50 colon cancer cells (HTC-116) [16]: 0.11 mg/L (≈ 0.285 µM)

Compound: O=C1O[C@H]([C@@H](O)CO)C(O)=C1O [ascorbic acid, reference compound]
- β-carotene bleaching IC50 ([5]; 90 min at 50 °C): 15.6 ± 0.65 mg/L
- DPPH IC50 [6]: 12.75 ± 0.25 mg/L
- % of DPPH radical inhibition [6]: 100%
- ABTS IC50 [17]: 20.43 ± 0.79 mg/L
- % of ABTS radical inhibition ([17]; concentration of 800 µg/mL): 100%

Compound: COc1cc(O)cc(O)c1C(=O)/C=C/c1ccccc1 [cardamonin]
- IC50 [18]: 17.1 ± 0.592 µM

Compound: CCCS(=O)(=O)Nc1ccc(F)c(C(=O)c2c[nH]c3ncc(-c4ccc(Cl)cc4)cc23)c1F [vemurafenib]
- IC50 [19]: 0.031 µM

Compound: methoxytolylacryloylbenzenesulfonamide
- viability of leukemia cells (K-562 cells): less than 10%
